Values after ≈ are worked out from the molar mass of the structure shown.
Assays:
[1] = target: Transient receptor potential cation channel subfamily V member 1 (Homo sapiens, UniProt Q8NER1); experiment: Inhibition of Vanilloid receptor 1
[2] = Inhibition of lipid peroxidation; assay type: functional
[3] = Inhibition of pig brain phospholipase; parameters: species or system Sus scrofa
Bacillus cereus = experiment: Antimicrobial activity against Bacillus cereus; assay type: functional
Leuconostoc = experiment: Antimicrobial activity against Leuconostoc plantarum; assay type: functional
Staphylococcus aureus = experiment: Antimicrobial activity against Staphylococcus aureus; assay type: functional
Micrococcus = experiment: Antimicrobial activity against Micrococcus flavus; assay type: functional
Bacillus anthracis = experiment: Antimicrobial activity against Bacillus anthracis; assay type: functional
[4] = Inhibition of almond beta-glucosidase; parameters: species or system Prunus dulcis
[5] = Cytotoxicity against human KATO III cells; assay type: functional, cell-based, KATO III cell
Aspergillus niger = experiment: Antimicrobial activity against Aspergillus niger; assay type: functional
Aspergillus flavus = experiment: Antimicrobial activity against Aspergillus flavus; assay type: functional
Amylomyces rouxii = experiment: Antimicrobial activity against Mucor rouxii; assay type: functional
L929 = experiment: Cytotoxicity against mouse L929 cells; assay type: cell-based
HeLa = experiment: Cytotoxicity against human HeLa cells; assay type: functional, cell-based
MDCK = experiment: Cytotoxicity against MDCK cells; assay type: cell-based; details: Canis lupus familiaris
[6] = Cytotoxicity against human FL cells; assay type: functional, cell-based
Protease = Protease (Human immunodeficiency virus 1, UniProt Q9YQ12); experiment: Inhibition of HIV1 protease
[7] = Cytotoxicity against mouse Meth-A cells; assay type: functional; details: read-out: ED50 (the source's name)
CCRF S-180 = experiment: Cytotoxicity against mouse S180 cells; assay type: functional; details: read-out: ED50 (the source's name)
T47D = experiment: Cytotoxicity against human T47D cells; assay type: functional; details: read-out: ED50 (the source's name)
[8] = Cytotoxicity against mouse LLC cells; assay type: functional; details: Lewis lung carcinoma, read-out: ED50 (the source's name)
Arthrobacter citreus = experiment: Antimicrobial activity against Arthrobacter citreus; assay type: functional
Bacillus subtilis = experiment: Antimicrobial activity against Bacillus subtilis; assay type: functional
[9] = test system: Clavibacter michiganensis subsp. insidiosus; experiment: Antimicrobial activity against Corynebacterium insidiosum; assay type: functional
Kocuria rosea = experiment: Antimicrobial activity against Micrococcus roseus; assay type: functional
Micrococcus luteus = experiment: Antimicrobial activity against Sarcina lutea; assay type: functional
[10] = Inhibition of DNA synthesis in human ECA cells assessed as blockade of thymidine incorporation; assay type: functional, cell-based
[11] = Toxicity in mouse at 225 mg/kg; assay type: organism-based; parameters: dose 225 mg/kg; details: in vivo
Alternaria = experiment: Antimicrobial activity against Alternaria; assay type: functional
[12] = Inhibition of NF-kappaB by secreted alkaline phosphatase based reporter gene assay
[13] = Antiplatelet activity assessed as inhibition of ADP-stimulated bovine platelet aggregation; assay type: functional; details: Bos taurus
[14] = Antiplatelet activity assessed as inhibition of ADP-stimulated human platelet aggregation; assay type: functional
L1210 = experiment: Cytotoxicity against mouse L1210 cells; assay type: functional, cell-based
HL-60 = experiment: Cytotoxicity against human HL60 cells
Liver microsomes = experiment: Antioxidant activity in rat liver microsomes assessed as inhibition of lipid peroxidation; assay type: functional, Microsome

Sequence of Transient receptor potential cation channel subfamily V member 1 (Q8NER1 whole entry): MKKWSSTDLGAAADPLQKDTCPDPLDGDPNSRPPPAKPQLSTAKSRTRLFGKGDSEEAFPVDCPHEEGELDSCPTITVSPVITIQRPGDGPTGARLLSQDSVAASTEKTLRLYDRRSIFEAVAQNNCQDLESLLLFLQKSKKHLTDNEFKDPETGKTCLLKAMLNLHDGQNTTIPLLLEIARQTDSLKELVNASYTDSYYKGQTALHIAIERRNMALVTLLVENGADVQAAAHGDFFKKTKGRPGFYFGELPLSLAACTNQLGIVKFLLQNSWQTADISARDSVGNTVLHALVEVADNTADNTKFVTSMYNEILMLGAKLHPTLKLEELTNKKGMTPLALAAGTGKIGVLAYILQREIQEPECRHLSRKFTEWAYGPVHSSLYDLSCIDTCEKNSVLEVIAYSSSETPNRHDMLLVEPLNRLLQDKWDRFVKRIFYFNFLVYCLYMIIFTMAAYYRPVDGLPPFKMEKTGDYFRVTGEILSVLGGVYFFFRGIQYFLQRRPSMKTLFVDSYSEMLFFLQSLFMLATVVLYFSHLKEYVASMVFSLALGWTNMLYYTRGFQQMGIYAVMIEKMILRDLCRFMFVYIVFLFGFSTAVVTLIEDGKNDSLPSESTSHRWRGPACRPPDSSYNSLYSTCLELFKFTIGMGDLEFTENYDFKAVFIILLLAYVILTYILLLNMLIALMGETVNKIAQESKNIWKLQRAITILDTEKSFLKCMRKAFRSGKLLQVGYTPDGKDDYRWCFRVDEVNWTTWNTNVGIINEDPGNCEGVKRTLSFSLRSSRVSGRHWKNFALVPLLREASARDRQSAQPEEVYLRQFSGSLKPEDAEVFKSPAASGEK
Sequence of Protease (Q9YQ12 whole entry): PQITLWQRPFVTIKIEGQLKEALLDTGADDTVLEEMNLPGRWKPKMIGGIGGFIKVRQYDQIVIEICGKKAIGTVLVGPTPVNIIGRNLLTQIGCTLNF

Cc1cc(O)c(C[C@@H]2[C@@]3(C)CCCC(C)(C)[C@@H]3CC[C@@]2(C)O)c(O)c1 [ALBACONOL]
IC50 [1]: 5 µM

COC1=C(c2ccccc2)C(=O)C(OC)=C(c2ccccc2)C1=O [BETULINAN A]
IC50 [2]: 0.46 µg/mL (≈ 1.44 µM)

COC1=C(c2ccccc2)C(=O)C2=C(C1=O)c1ccccc1CO2 [BETULINAN B]
IC50 [2]: 2.88 µg/mL (≈ 9.05 µM)

CC(=O)O[C@@H]1[C@H](O[C@H](CO)[C@H](O)[C@@H](O)[C@@H](OC(C)=O)C(=O)O[C@H](C)CCCCCCCCCCCCCCCc2cccc(O)c2C(=O)O)O[C@H](CO)[C@@H](O)[C@@H]1O [CALOPOROSIDE]
Ki [3]: 10 µg/mL (≈ 12.2 µM)

Nc1c(C(=O)O)c2nc3c(CO)cccc3oc-2cc1=O [CINNABARIN]
MIC (Bacillus cereus): 62.5 µg/mL (≈ 218 µM)
MIC (Leuconostoc): 62.5 µg/mL (≈ 218 µM)

CC1(C)C[C@H]2[C@@H]([C@H]1O)[C@@]1(C)[C@@]3(O[C@@H]3C(=O)[C@@]13CO3)[C@H]2O [CORIOLIN]
MIC (Staphylococcus aureus): 12.5 µg/mL (≈ 44.6 µM)
MIC (Micrococcus): 12.5 µg/mL (≈ 44.6 µM)
MIC (Bacillus anthracis): 12.5 µg/mL (≈ 44.6 µM)

OC[C@@H]1[C@@H](O)[C@H](O)[C@@H](O)[C@@H]2O[C@H]12 [CYCLOPHELLITOL]
IC50 [4]: 0.8 µg/mL (≈ 4.54 µM)

OCCCc1ccc2oc(-c3ccc4c(c3)OCO4)cc2c1 [DEMETHOXYEGONOL]
IC50 [5]: 27.5 µg/mL (≈ 92.8 µM)

C=C1C(=O)[C@H]2O[C@]23C[C@H]2CC(C)(C)C[C@H]2[C@]13C [DESOXYHYPNOPHILIN]
MIC (Bacillus cereus): 1 µg/mL (≈ 4.3 µM)
MIC (Aspergillus niger): 1 µg/mL (≈ 4.3 µM)
MIC (Aspergillus flavus): 1 µg/mL (≈ 4.3 µM)
MIC (Amylomyces rouxii): 1 µg/mL (≈ 4.3 µM)
IC50 (L929): 2.4 µg/mL (≈ 10.3 µM)

COc1cc(CCCO[C@@H]2O[C@H](CO)[C@@H](O)[C@H](O)[C@H]2O)cc2cc(-c3ccc4c(c3)OCO4)oc12 [EGONOL GLUCOSIDE]
IC50 [5]: 24.9 µg/mL (≈ 51 µM)

COc1cc(CCCO)cc2cc(-c3ccc4c(c3)OCO4)oc12 [EGONOL]
IC50 [5]: 28.8 µg/mL (≈ 88.2 µM)

O=Cc1ccc(O)c(O)c1C=O [FOMECIN B]
IC50 (HeLa): 20 µg/mL (≈ 120 µM)
IC50 (MDCK): 14 µg/mL (≈ 84.3 µM)
IC50 [6]: 17 µg/mL (≈ 102 µM)

C/C(=C\CC[C@@H](C)[C@H]1CC(=O)[C@@]2(C)C3=C(C(=O)C[C@]12C)[C@@]1(C)CC[C@H](O)C(C)(C)[C@@H]1C[C@@H]3O)C(=O)O [GANODERIC ACID BETA]
IC50 (Protease): 20 µM

C=C1[C@@H](O)[C@H]2O[C@]23C[C@H]2CC(C)(C)[C@H](O)[C@H]2[C@]13C [HYPNOPHILIN 1]
IC50 (L929): 0.9 µg/mL (≈ 3.6 µM)

C=C1C(=O)[C@H]2O[C@]23C[C@H]2CC(C)(C)[C@H](O)[C@H]2[C@]13C [HYPNOPHILIN]
MIC (Bacillus cereus): 1 µg/mL (≈ 4.03 µM)
MIC (Aspergillus niger): 1 µg/mL (≈ 4.03 µM)
MIC (Aspergillus flavus): 1 µg/mL (≈ 4.03 µM)
MIC (Amylomyces rouxii): 1 µg/mL (≈ 4.03 µM)

C=C(CC[C@@H](C)[C@H]1CC[C@@]2(C)C3=C(CC[C@]12C)[C@@]1(C)CC[C@H](O)C(C)(C)C1CC3=O)C(C)C=O (stereo partly specified) [LUCIALDEHYDE C]
EC50 [7]: 3.8 µg/mL (≈ 8.11 µM)
EC50 (CCRF S-180): 7.1 µg/mL (≈ 15.1 µM)
EC50 (T47D): 4.7 µg/mL (≈ 10 µM)
EC50 [8]: 10.7 µg/mL (≈ 22.8 µM)

CCCCCCCC/C=C\CCCCCCCc1cc(O)cc(O)c1C(=O)O [MERULINIC ACID A]
MIC (Arthrobacter citreus): 0.4 µg/mL (≈ 1.02 µM)
MIC (Bacillus subtilis): 0.4 µg/mL (≈ 1.02 µM)
MIC [9]: 0.4 µg/mL (≈ 1.02 µM)
MIC (Kocuria rosea): 0.4 µg/mL (≈ 1.02 µM)
MIC (Micrococcus luteus): 0.4 µg/mL (≈ 1.02 µM)

CC(O)CCCCCC/C=C\CCCCCCCc1cccc(O)c1C(=O)O (stereo unspecified) [MERULINIC ACID B]
MIC (Arthrobacter citreus): 0.4 µg/mL (≈ 1.02 µM)
MIC (Bacillus subtilis): 0.4 µg/mL (≈ 1.02 µM)
MIC [9]: 0.4 µg/mL (≈ 1.02 µM)
MIC (Kocuria rosea): 0.4 µg/mL (≈ 1.02 µM)
MIC (Micrococcus luteus): 0.4 µg/mL (≈ 1.02 µM)

CCCCCCCC/C=C\CCCCCCCc1cccc(O)c1C(=O)O [MERULINIC ACID C]
MIC (Arthrobacter citreus): 0.4 µg/mL (≈ 1.07 µM)
MIC (Bacillus subtilis): 0.4 µg/mL (≈ 1.07 µM)
MIC [9]: 0.4 µg/mL (≈ 1.07 µM)
MIC (Kocuria rosea): 0.4 µg/mL (≈ 1.07 µM)
MIC (Micrococcus luteus): 0.4 µg/mL (≈ 1.07 µM)

C=C1C(=O)[C@H](OC(C)=O)/C=C(\C)C(=O)[C@H](O)[C@@H]2[C@@H]1CC2(C)C [NAEMATOLON]
IC50 [10]: 2 µg/mL (≈ 6.53 µM)
LD50 [11]: 225 mg/kg

Cc1oc(=O)c2c(O)cccc2c1C [OOSPOLACTONE]
MIC (Alternaria): 12.5 µg/mL (≈ 65.7 µM)

CC(C)=C[C@H](O)C1=C[C@@H](O)[C@@H]2O[C@@H]2C1=O [PANEPOXYDONE]
IC50 [12]: 1.5 µg/mL (≈ 7.14 µM)

CC1(C)CCC(=O)[C@@H]2[C@@H](C=O)C(C=O)=CC[C@@H]21 [PANUDIAL]
IC30 [13]: 2.5 µg/mL (≈ 10.7 µM)
IC30 [14]: 6 µg/mL (≈ 25.6 µM)

CC(C)C(C)C[C@@H](O)[C@](C)(O)[C@H]1CC[C@@]2(O)C3=CC(=O)[C@@H]4C[C@@H](O)[C@@H](O)C[C@]4(C)[C@H]3CC[C@]12C (stereo partly specified) [POLYPORUSTERONE A]
IC50 (L1210): 10 µg/mL (≈ 20.9 µM)

C=C(C[C@@H](O)[C@](C)(O)[C@H]1CC[C@@]2(O)C3=CC(=O)[C@@H]4C[C@@H](O)[C@@H](O)C[C@]4(C)[C@H]3CC[C@]12C)C(C)C [POLYPORUSTERONE B]
IC50 (L1210): 10 µg/mL (≈ 21 µM)

CC(C)C(C)C1O[C@H]1[C@](C)(O)[C@H]1CC[C@@]2(O)C3=CC(=O)[C@@H]4C[C@@H](O)[C@@H](O)C[C@]4(C)[C@H]3CC[C@]12C (stereo partly specified) [POLYPORUSTERONE C]
IC50 (L1210): 10 µg/mL (≈ 21 µM)

C=C([C@H](O)C[C@H](C)C(C)C)[C@H]1CC[C@@]2(O)C3=CC(=O)[C@@H]4C[C@@H](O)[C@@H](O)C[C@]4(C)[C@H]3CC[C@]12C [POLYPORUSTERONE D]
IC50 (L1210): 10 µg/mL (≈ 21.7 µM)

CC(C)[C@@H](C)[C@@H]1O[C@H]1[C@@H](C)[C@H]1CC[C@@]2(O)C3=CC(=O)[C@@H]4C[C@@H](O)[C@@H](O)C[C@]4(C)[C@H]3CC[C@]12C [POLYPORUSTERONE E]
IC50 (L1210): 10 µg/mL (≈ 21.7 µM)

CC(C)[C@@H](C)C[C@@H](O)[C@@H](C)[C@H]1CC[C@@]2(O)C3=CC(=O)[C@@H]4C[C@@H](O)[C@@H](O)C[C@]4(C)[C@H]3CC[C@]12C [POLYPORUSTERONE F]
IC50 (L1210): 10 µg/mL (≈ 21.6 µM)

C=C(C[C@@H](O)[C@@H](C)[C@H]1CC[C@@]2(O)C3=CC(=O)[C@@H]4C[C@@H](O)[C@@H](O)C[C@]4(C)[C@H]3CC[C@]12C)C(C)C [POLYPORUSTERONE G]
IC50 (L1210): 10 µg/mL (≈ 21.7 µM)

C=C(C)[C@@H]1CCC2=C(CC[C@]3(C)[C@@H]([C@@H](CCC=C(C)C)C(=O)O)[C@H](O)C[C@@]23C)[C@@]1(C)CCC(=O)O [PORICOIC ACID G]
GI50 (HL-60): 0.0393 µM

CC1(C)C=Cc2ccc(O[C@@H]3O[C@H](CO)[C@@H](O)[C@H]3O)cc2O1 [STERIN A]
IC50 (Liver microsomes): 8 µg/mL (≈ 25.9 µM)

Source: ChEMBL document CHEMBL1146486, “Biologically active compounds from Aphyllophorales (polypore) fungi” (J Nat Prod, 2004)
